Data as given in PMC7605555 (bioRxiv, 2020).
“And” between values parts separate entries of the source, which are not always exact repeats. Identical values can stand only once.

Assays:
SARS-CoV-2 [1] = format: cell-based
SARS-CoV-2 [2] = experiment: Viral particle inactivation / time-of-addition, plaque assay on Vero E6 cells; format: cell-based
Vero E6 cells = experiment: Cytotoxicity, WST-1 cell proliferation assay; format: cell-based, African green monkey; settings: for concentration at which cytotoxic: Vero E6 cells
SARS-CoV-2 [3] = experiment: Plaque assay on A549^ACE2 cells with ethacridine-treated virus; format: cell-based; settings: 5 uM, 1 hr pre-incubation
SARS-CoV-2 viral RNA = experiment: Viral RNA quantification by qRT-PCR in Vero cells and supernatant; format: cell-based; settings: 5 μM
[4] = 20 mg/kg, i.p. injection; cited from earlier work
[5] = molecular target: SARS-CoV-2 main protease Mpro (Severe acute respiratory syndrome coronavirus 2, UniProt P0DTD1); experiment: cell-based; settings: IC50 in inhibiting Mpro
SARS-CoV-2 [6] = format: cell-based; settings: virus treated with 5 μM for 1 hour, MOI = 100, Vero E6
SARS-CoV-2 [7] = format: cell-based; settings: 5 μM, 48 hours, anti-N and anti-S staining
[8] = rat, mice and rabbits; cited from earlier work

With C[C@@H](NCCCc1cccc(C(F)(F)F)c1)c1cccc2ccccc12 [Cinacalcet, cinacalcet] the “reduction in viral titer” value (SARS-CoV-2 [1]) was ~ 1 log.
For CCOc1ccc2nc3cc(N)ccc3c(N)c2c1 [Ethacridine, ethacridine], the “reduction in viral titer, DMSO + Eth.” value (SARS-CoV-2 [2]; 5 μM, drug added after viral entry) was 3 – 4 logs, the “reduction in viral titer, Eth. + Eth.” value (SARS-CoV-2 [2]; 5 μM, drug present continuously prior to plaque assay, versus DMSO + DMSO) was 3 – 4 logs and the “reduction in viral titer, Eth. + Eth.” value (SARS-CoV-2 [2]; 5 μM, plaque assay) was 2400 fold. For the same compound, the “reduction in infectivity, Eth. [1 hr]” value (SARS-CoV-2 [2]; virus pre-incubated with drug 1 hr, plaque assay without drug) was 3 – 4 logs, the cell toxicity (Vero E6 cells; Vero E6 (Fig. 3e)) was “very little cell toxicity” and the “reduction in viral titer” value (SARS-CoV-2 [1]) was 5 – 6 log. For the same compound, the “infectivity of drug-treated virus on A549^ACE2 cells” value (SARS-CoV-2 [3]) was “dramatic decrease in infectivity”, the “change of viral RNA (vRNA) levels, DMSO + Eth.” value (SARS-CoV-2 viral RNA; drug added after binding and entry, supernatant and cells) was “no change” and the “reduction in vRNA copies, Eth. + Eth.” value (SARS-CoV-2 viral RNA; drug present continuously, supernatant and within the cells) was 4 – 5 fold. The toxicity in mice [4] was “no toxicity”, the IC50 [5] was ~3.54 µM and ~3.5 µM and the “detectable anti-N and anti-S fluorescence on cells” value (SARS-CoV-2 [6]) was “dramatic reduction”. For the same compound, the “proportion of infected primary nasal cells” value (SARS-CoV-2 [7]) was “dramatically decreased” and the “toxicity in animal models” value [8] was “non-toxic”.
For CC(=O)[C@@]1(O)CC[C@H]2[C@@H]3CCC4=CC(=O)CC[C@]4(C)[C@H]3CC[C@@]21C [Hydroxyprogesterone, hydroxyprogesterone], the “reduction in viral titer” value (SARS-CoV-2 [1]) was ~ 1 log.
With CCC(CC)COC(=O)[C@H](C)N[P@](=O)(OC[C@H]1O[C@@](C#N)(c2ccc3c(N)ncnn23)[C@H](O)[C@@H]1O)Oc1ccccc1 [Remdesivir, remdesivir] the “reduction in viral titer” value (SARS-CoV-2 [1]) was ~ 4 log.
In the case of COc1ccc2c(O[C@@H]3C[C@H]4C(=O)N[C@]5(C(=O)NS(=O)(=O)C6CC6)C[C@H]5/C=C\CCCCN(C)C(=O)[C@@H]4C3)cc(-c3nc(C(C)C)cs3)nc2c1C [Simeprevir, simeprevir], the “reduction in viral titer” value (SARS-CoV-2 [1]) is reported as ~ 4 log.
With O=c1c2ccccc2[se]n1-c1ccccc1 [ebselen] the “reduction in viral titer” value (SARS-CoV-2 [1]) was ~ 2 log.
In the case of ivermectin, the “concentration at which cytotoxic” value (Vero E6 cells) is reported as 5 to 13 µM.
In the case of verteporfin, the “concentration at which cytotoxic” value (Vero E6 cells) is reported as 5 to 13 µM.
